Test results taken from US9096591B2, “Tetracyclic compounds” (Medivation Technologies, Inc., priority 2007, dated 2015).

Assays:
[1] = system: adrenergic receptors α1D, α2A, α2B; serotonin receptor 5-HT6; dopamine receptor D2L; assay: Classification of compounds (Type 1-4) from receptor binding and neurite outgrowth
Source text: Compounds of the invention that inhibit binding of a ligand to adrenergic receptors α1D, α2A, α2B and serotonin receptor 5-HT6 by at least about 80% as determined in a suitable assay such as the assays described herein can be classified as Type 1 compounds. […] In one variation, binding of a ligand to serotonin receptor 5-HT7 is at least about 80%. […] Weak inhibition of binding of a ligand to the histamine H1 receptor is permitted as agonists of this receptor have been implicated in stimulating memory as well as weight gain. In one variation, binding to histamine receptor H1 is inhibited by less than about 80%. […] Compounds that inhibit binding of a ligand to the dopamine D2L receptor by at least about 80% as determined in a suitable assay such as the assay described herein can be classified as Type 2 compounds.
In one variation, Type 1 compounds further inhibit binding of a ligand to dopamine receptor D2L by less than about 80% as determined in a suitable assay known in the art such as the assay described herein. […] In one variation, binding of a ligand to serotonin receptor 5-HT7, 5-HT2A and/or 5-HT2C is inhibited by at least about 80% as determined in a suitable assay such as the assays described herein. […] In one variation, binding of a ligand to histamine receptor H1 and/or H2 is inhibited by less than about 80% as determined by a suitable assay known in the art such as the assays described herein.
In one variation, biding to serotonin receptor 5-HT2A is inhibited by at least about 80% as determined in a suitable assay know in the art such as the assay described herein.

rat brain mitochondria = assay: Ca2+-induced swelling of mitochondria (MPT pore opening); format: biochemical, Wistar rats; settings: rat brain mitochondria
Procedure: Rat liver and brain mitochondria were prepared from male Wistar rats. The rats were euthanized in a CO2 chamber followed by decapitation the procedure being in compliance with the Guidelines for Animal Experiments at IPAC RAS. […]
Brain mitochondria were isolated from the pooled forebrains of two rats. The modified method of Sims was used to isolate and purify brain mitochondria in a Percoll gradient. The brain was homogenized in “buffer A” (225 mM mannitol, 75 mM sucrose, 5 mM HEPES, 1 mM EGTA, pH 7.4 [KOH]) and centrifuged for 10 min at 1300 g. The supernatant was centrifuged for 10 min at 10000 g, and then the pellet was suspended in 15% Percoll and layered on a discontinuous gradient consisting of 40 and 23% Percoll, respectively, which was then centrifuged for 10 min at 30000 g without using brakes. The mitochondria were collected from the interface of the lower two layers and after resuspension in “buffer A”, the suspension was centrifuged at 16600 g for 10 min, then the pellet was resuspended in “buffer A”, BSA (10 mg/mL) was added to bind free fatty acids; and the suspensions was centrifuged again at 6300 g for 10 min. Following centrifugation the pelleted mitochondria were re-suspended in isolation medium without EGTA to achieve a protein concentration of 15-20 mg/ml.
Mitochondrial swelling caused by influx of solutes through open PT pores results in an increase in light transmission (i.e., a reduced turbidity). This turbidity change offers a convenient and frequently used assay of the MPT by measurement of absorbance in mitochondrial suspensions. In the present study, the MPT induced by Ca^2+ and inorganic phosphate (Ca/Pi) was monitored by absorbance changes at 540 nm in a cuvette in a Beckman DU 640 spectrophotometer in 1 ml of buffer A plus 0.8 μM rotenone, 5 mM succinate, 1 mM KH2PO4 and 0.5 mg or 0.2 mg protein of isolated liver or brain mitochondria, accordingly. Reaction was started by the addition of triggering agent (Ca^2+). Pre-treatment and reaction were performed at 30° C. Swelling rate was quantified as ΔA540/min/mg, calculated, in all cases, from a tangent to the steepest portion of the plot of A540 versus time.
Ca^2+-induced Swelling of mitochondria was used as the primary screening test for compounds influence on MPT pore opening. […] But the inhibition of swelling may be connected not only with direct inhibition of MPT pore opening but also with the impairment of respiratory function of mitochondria and with the compounds action on calcium transport into mitochondria. For the primary estimation of these possibilities the mitochondrial membrane potential and calcium retention capacity of mitochondria were measured. […] New synthesized compounds (except C-14 and C-43) alone induced an increase of brain mitochondria suspension turbidity. The mechanism of such effect needs additional investigations.

mice = assay: recognition test of new location of a known object (spatial memory); format: in vivo
[2] = system: synaptosomes of cortex of rat brain; assay: Glutamate-induced 45Ca2+ uptake into synaptosomes; format: biochemical, Wistar rats; settings: for % Ca of control (control-100%), glutamate-induced 45Ca2+ uptake into synaptosomes: rat cortex synaptosomes
In short: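 Cortical synaptosomes (P2 fraction) from 9-10-day-old Wistar rats, ~1.5-2 mg/ml protein in HEPES-buffered saline with glucose, pH 7.4, stimulated 5 min with 200 μM glutamate at 37° C. 45Ca2+ uptake measured by filtration and scintillation counting; specific uptake with compound expressed as percentage of glutamate-induced uptake, each corrected for unstimulated uptake.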

## CN1CCc2c(c3cc(I)ccc3n2CCc2ccccc2F)C1 [Compound 89, 5-(2-fluorophenethyl)-2,3,4,5-tetrahydro-8-iodo-2-methyl-1H-pyrido[4,3-b]indole]
[1]
  compound type (classification by receptor binding profile and neurite outgrowth): Type one

## CCOc1ccc(CCn2c3c(c4cc(C)ccc42)CN(C)CC3)cc1 [Compound 334, 5-[2-(4-Ethoxy-phenyl)-ethyl]-2,8-dimethyl-2,3,4,5-tetrahydro-1H-pyrido[4,3-b]indole]
[1]
  compound type (classification by receptor binding profile and neurite outgrowth): Type one

## Cc1ccc(CCn2c3c(c4cc(Br)ccc42)CN(C)CC3)cn1 [Compound 487, 8-bromo-2-methyl-5-(2-(6-methylpyridin-3-yl)ethyl)-2,3,4,5-tetrahydro-1H-pyrido[4,3-b]indole]
[1]
  compound type (classification by receptor binding profile and neurite outgrowth): Type one

## Cc1ccc2c(c1)c1c(n2CCc2nc(-c3ccccc3)cs2)CCN(C)C1 [Compound C1-5]
Rat brain mitochondria; 100 μM compound
  A540 increase in mitochondrial suspension after addition of 100 μM of compound: 30 rel.units
Rat brain mitochondria; read-out: IC50, Ca2+-induced (25-50 μM) swelling of brain mitochondria, Ca2+ 25-50 μM
  IC50: 18 ± 16 µM
mice; Dose of Compound 0.05 mg/kg
  Influence on memory in the test recognition new localization of known object: −
mice; Dose of Compound 0.1 mg/kg
  Influence on memory in the test recognition new localization of known object: +
mice; Dose of Compound 0.5 mg/kg
  Influence on memory in the test recognition new localization of known object: −
mice; Dose of Compound 1.0 mg/kg
  Influence on memory in the test recognition new localization of known object: +
mice; comparison of effective doses
  activity on memory compared with dimebon (in words): at a level dimebon
mice; mice, dose 0.05 mg/kg
  effect of the dose on exploration time / memory (in words): no effect
mice; mice, dose 0.1 mg/kg
  time exploring the object in a new location, % of the total time: 57.9±7.5%
  time exploring the object in the known position, % of the total time: 42.1±7.5%
mice; mice, dose 0.5 mg/kg
  effect of the dose on exploration time / memory (in words): disappearance of the stimulating effect on memory
mice; mice, dose 1 mg/kg
  time exploring the object in a new location, % of the total time: 57.4±8.4%
  time exploring the object in the known position, % of the total time: 42.6±8.4%
mice; mice, doses 0.05-1 mg/kg
  overall effect on memory (in words): stimulating effect on memory
[2]; 0.5 μM
  inhibition of glutamate-induced 45Ca2+ uptake into synaptosomes: about 22.5%
[2]; C 100 μM
  glutamate-induced 45Ca2+ uptake into synaptosomes of rat cortex, % Ca of control (control-100%): 130%
[2]; compound 0.1 μM
  % Ca of control (control-100%), glutamate-induced 45Ca2+ uptake into synaptosomes: 96.3 ± 5.6%
[2]; compound 0.5 μM
  % Ca of control (control-100%), glutamate-induced 45Ca2+ uptake into synaptosomes: 77.5 ± 0.8%
[2]; compound 1 μM
  % Ca of control (control-100%), glutamate-induced 45Ca2+ uptake into synaptosomes: 94 ± 3.4%
[2]; compound 5 μM
  % Ca of control (control-100%), glutamate-induced 45Ca2+ uptake into synaptosomes: 96 ± 1.5%
[2]; compound 10 μM
  % Ca of control (control-100%), glutamate-induced 45Ca2+ uptake into synaptosomes: 117.2 ± 1.3%
[2]; compound 50 μM
  % Ca of control (control-100%), glutamate-induced 45Ca2+ uptake into synaptosomes: 115.4 ± 4.8%
[2]; compound 100 μM
  % Ca of control (control-100%), glutamate-induced 45Ca2+ uptake into synaptosomes: 30.1 ± 7.4%
